{"source": "patent US20100138935A1", "about": "“Detection of cellular stress” (priority 2004, published 2010)", "key": {"HOZ mice [1]": {"system": "HOZ mice", "experiment": "Plasma AST as a marker of hepatotoxicity in HOZ mice", "format": "in vivo, mouse", "procedure": "(§1) Terminal blood samples were taken by cardiac puncture into lithium/heparin-coated tubes for preparation of plasma. Tissues, as defined in each protocol, were routinely dissected as follows:\n(§2) Following removal into tubes suitable for plasma preparation, venous blood samples were mixed on a roller for 10 minutes then cooled on ice. Red blood cells were removed by centrifugation at 2,000 rpm for 10 minutes at 8-10° C. The supernatant (plasma) was transferred to a second tube and stored at −70° C. until required for analysis.\n(§3) Plasma samples were analysed for appropriate analytes on a Roche autoanalyser (Cobas Integra 400) according to the manufacturer's instructions. The routine markers measured included: (for liver damage) plasma alanine aminotransferase (ALT), aspartate aminotransferase (AST) and alkaline phosphatase (ALP) and (for kidney damage) plasma creatinine and blood urea nitrogen (BUN).\nTwo plasma enzyme markers, ALT and AST, were used as markers of hepatotoxicity in HOZ mice treated with cadmium chloride or sodium arsenite. […]"}, "HOZ mice [2]": {"system": "HOZ mice", "experiment": "Histopathology (H&E) of HOZ mouse liver and kidney", "format": "in vivo", "conditions": "10 mg/kg i.p. in saline, 24 hours", "procedure": "Two further slices (˜2 mm thickness) were placed in 10% neutral buffered formalin (10% NBF) overnight then processed, sectioned and stained with haematoxylin and eosin (H&E).\nInitially, one HOZ mouse was given 10 mg/kg body weight cadmium chloride i.p. One control animal received the vehicle solution, isotonic saline, i.p. and an untreated animal was used as a second control. The animals were killed 24 hours after dosing and liver, kidney and brain were collected for H&E staining and lacZ histology.\nSections of HOZ mouse liver and kidney were prepared and stained according to standard procedures (H&E). (a, b) Naive control; (c, d) Saline treated; (e, f) Cadmium chloride treated (10 mg/kg i.p. in saline). All images in FIG. 5 are of H&E stained sections: (a, c and e) are of liver; b, d and f are of kidney (original magnification ×100)."}, "HOZ mice [3]": {"system": "HOZ mice", "experiment": "BUN as a marker of nephrotoxicity in HOZ mice", "format": "in vivo, mouse", "parameters": "BUN: unit not given here", "procedure": "as §1, §2, §3\nThe increase in BUN was 6-fold at 8 hours and 44-fold after 24 hours."}, "HOZ mice [4]": {"system": "HOZ mice", "experiment": "Plasma ALT as a marker of hepatotoxicity in HOZ mice", "format": "in vivo, mouse", "procedure": "as §1, §2, §3\nTwo plasma enzyme markers, ALT and AST, were used as markers of hepatotoxicity in HOZ mice treated with cadmium chloride or sodium arsenite. The results of this analysis for HOZ mice treated with 10 mg/kg cadmium chloride are shown in Table 1 and for HOZ mice treated with 2-8 mg/kg cadmium chloride or 13 mg/kg sodium arsenite in Tables 2 and 3."}, "[5]": {"conditions": "HOZ mouse, 10 mg/kg i.p., 24 hours"}, "[6]": {"conditions": "female, 8 mg/kg, after 24 hours"}, "[7]": {"conditions": "male, 8 mg/kg, 24 hours after treatment"}}}
{"smiles": "[Cl][Cd][Cl]", "note": "[Cadmium Chloride, cadmium chloride]", "values": [{"measurement": "AST", "setting": "HOZ mice [1]; [5]", "value": 4643.1, "unit": "U/L"}, {"measurement": "Plasma AST", "setting": "HOZ mice [1]; female, 1 mg/kg, 8 hours", "value": 87.6, "unit": "u/L"}, {"measurement": "Plasma AST", "setting": "HOZ mice [1]; female, 1 mg/kg, 24 hours", "value": 87.5, "unit": "u/L"}, {"measurement": "Plasma AST", "setting": "HOZ mice [1]; female, 2 mg/kg, 8 hours", "value": 80.4, "unit": "u/L"}, {"measurement": "Plasma AST", "setting": "HOZ mice [1]; female, 2 mg/kg, 24 hours", "value": 104.7, "unit": "u/L"}, {"measurement": "Plasma AST", "setting": "HOZ mice [1]; female, 4 mg/kg, 8 hours", "value": 108.5, "unit": "u/L"}, {"measurement": "Plasma AST", "setting": "HOZ mice [1]; female, 4 mg/kg, 24 hours", "value": 89.1, "unit": "u/L"}, {"measurement": "increase in plasma AST", "setting": "HOZ mice [1]; female, 4 mg/kg, at either time point (8, 24 hours)", "value": "no increase in plasma AST was observed"}, {"measurement": "Plasma AST", "setting": "HOZ mice [1]; female, 8 mg/kg, 8 hours", "value": 13425.6, "unit": "u/L"}, {"measurement": "Plasma AST", "setting": "HOZ mice [1]; female, 8 mg/kg, 24 hours", "value": 8097.6, "unit": "u/L"}, {"measurement": "increase in plasma AST", "setting": "HOZ mice [1]; female, 8 mg/kg, after 8 hours", "value": 237, "unit": "fold"}, {"measurement": "increase in plasma AST", "setting": "HOZ mice [1]; [6]", "value": 97, "unit": "fold"}, {"measurement": "Plasma AST", "setting": "HOZ mice [1]; male, 1 mg/kg, 8 hours", "value": 100.2, "unit": "u/L"}, {"measurement": "Plasma AST", "setting": "HOZ mice [1]; male, 1 mg/kg, 24 hours", "value": 63.1, "unit": "u/L"}, {"measurement": "Plasma AST", "setting": "HOZ mice [1]; male, 2 mg/kg, 8 hours", "value": 66.4, "unit": "u/L"}, {"measurement": "Plasma AST", "setting": "HOZ mice [1]; male, 2 mg/kg, 24 hours", "value": 56.4, "unit": "u/L"}, {"measurement": "Plasma AST", "setting": "HOZ mice [1]; male, 4 mg/kg, 8 hours", "value": 132.3, "unit": "u/L"}, {"measurement": "Plasma AST", "setting": "HOZ mice [1]; male, 4 mg/kg, 24 hours", "value": 123.0, "unit": "u/L"}, {"measurement": "Plasma AST", "setting": "HOZ mice [1]; male, 8 mg/kg, 8 hours", "value": 92.4, "unit": "u/L"}, {"measurement": "Plasma AST", "setting": "HOZ mice [1]; male, 8 mg/kg, 24 hours", "value": 353.8, "unit": "u/L"}, {"measurement": "increase in AST", "setting": "HOZ mice [1]; [7]", "value": 3.8, "unit": "fold"}, {"measurement": "kidney histology (H&E)", "setting": "HOZ mice [2]", "value": "occasional necrotic proximal convoluted tubules (PCTs)"}, {"measurement": "liver histology (H&E)", "setting": "HOZ mice [2]", "value": "acute toxicity manifesting as hepatocyte vacuolation and areas of necrosis associated with deposits of erythrocytes"}, {"measurement": "BUN", "setting": "HOZ mice [3]; female, 1 mg/kg, 8 hours", "value": 5.10}, {"measurement": "BUN", "setting": "HOZ mice [3]; female, 1 mg/kg, 24 hours", "value": 4.36}, {"measurement": "BUN", "setting": "HOZ mice [3]; female, 2 mg/kg, 8 hours", "value": 3.33}, {"measurement": "BUN", "setting": "HOZ mice [3]; female, 2 mg/kg, 24 hours", "value": 2.85}, {"measurement": "BUN", "setting": "HOZ mice [3]; female, 4 mg/kg, 8 hours", "value": 4.77}, {"measurement": "BUN", "setting": "HOZ mice [3]; female, 4 mg/kg, 24 hours", "value": 3.66}, {"measurement": "nephrotoxicity as measured by BUN", "setting": "HOZ mice [3]; female, 8 mg/kg", "value": "mild nephrotoxicity"}, {"measurement": "BUN", "setting": "HOZ mice [3]; female, 8 mg/kg, 8 hours", "value": 22.86}, {"measurement": "BUN", "setting": "HOZ mice [3]; female, 8 mg/kg, 24 hours", "value": 98.16}, {"measurement": "increase in BUN", "setting": "HOZ mice [3]; [6]", "value": 44, "unit": "fold"}, {"measurement": "increase in BUN", "setting": "HOZ mice [3]; female, 8 mg/kg, at 8 hours", "value": 6, "unit": "fold"}, {"measurement": "nephrotoxicity as measured by BUN", "setting": "HOZ mice [3]; male mice", "value": "No nephrotoxicity"}, {"measurement": "BUN", "setting": "HOZ mice [3]; male, 1 mg/kg, 8 hours", "value": 4.54}, {"measurement": "BUN", "setting": "HOZ mice [3]; male, 1 mg/kg, 24 hours", "value": 5.27}, {"measurement": "BUN", "setting": "HOZ mice [3]; male, 2 mg/kg, 8 hours", "value": 4.24}, {"measurement": "BUN", "setting": "HOZ mice [3]; male, 2 mg/kg, 24 hours", "value": 5.10}, {"measurement": "BUN", "setting": "HOZ mice [3]; male, 4 mg/kg, 8 hours", "value": 3.87}, {"measurement": "BUN", "setting": "HOZ mice [3]; male, 4 mg/kg, 24 hours", "value": 4.11}, {"measurement": "BUN", "setting": "HOZ mice [3]; male, 8 mg/kg, 8 hours", "value": 3.84}, {"measurement": "BUN", "setting": "HOZ mice [3]; male, 8 mg/kg, 24 hours", "value": 4.85}, {"measurement": "ALT", "setting": "HOZ mice [4]; [5]", "value": 1834.8, "unit": "U/L"}, {"measurement": "Plasma ALT", "setting": "HOZ mice [4]; female, 1 mg/kg, 8 hours", "value": 33.3, "unit": "u/L"}, {"measurement": "Plasma ALT", "setting": "HOZ mice [4]; female, 1 mg/kg, 24 hours", "value": 28.2, "unit": "u/L"}, {"measurement": "Plasma ALT", "setting": "HOZ mice [4]; female, 2 mg/kg, 8 hours", "value": 22.8, "unit": "u/L"}, {"measurement": "Plasma ALT", "setting": "HOZ mice [4]; female, 2 mg/kg, 24 hours", "value": 26.1, "unit": "u/L"}, {"measurement": "Plasma ALT", "setting": "HOZ mice [4]; female, 4 mg/kg, 8 hours", "value": 55.6, "unit": "u/L"}, {"measurement": "Plasma ALT", "setting": "HOZ mice [4]; female, 4 mg/kg, 24 hours", "value": 23.7, "unit": "u/L"}, {"measurement": "increase in plasma ALT", "setting": "HOZ mice [4]; female, 4 mg/kg, after 8 hours", "value": 2.4, "unit": "fold"}, {"measurement": "increase in ALT", "setting": "HOZ mice [4]; female, 4 mg/kg, second statement, printed as after 8 hours", "value": "≤ 2", "unit": "fold"}, {"measurement": "Plasma ALT", "setting": "HOZ mice [4]; female, 8 mg/kg, 8 hours", "value": 3930.6, "unit": "u/L"}, {"measurement": "Plasma ALT", "setting": "HOZ mice [4]; female, 8 mg/kg, 24 hours", "value": 7010.4, "unit": "u/L"}, {"measurement": "increase in plasma ALT", "setting": "HOZ mice [4]; female, 8 mg/kg, after 8 hours", "value": 170, "unit": "fold"}, {"measurement": "increase in plasma ALT", "setting": "HOZ mice [4]; [6]", "value": 275, "unit": "fold"}, {"measurement": "Plasma ALT", "setting": "HOZ mice [4]; male, 1 mg/kg, 8 hours", "value": 70.3, "unit": "u/L"}, {"measurement": "Plasma ALT", "setting": "HOZ mice [4]; male, 1 mg/kg, 24 hours", "value": 33.1, "unit": "u/L"}, {"measurement": "Plasma ALT", "setting": "HOZ mice [4]; male, 2 mg/kg, 8 hours", "value": 21.7, "unit": "u/L"}, {"measurement": "Plasma ALT", "setting": "HOZ mice [4]; male, 2 mg/kg, 24 hours", "value": 19.4, "unit": "u/L"}, {"measurement": "Plasma ALT", "setting": "HOZ mice [4]; male, 4 mg/kg, 8 hours", "value": 50.4, "unit": "u/L"}, {"measurement": "Plasma ALT", "setting": "HOZ mice [4]; male, 4 mg/kg, 24 hours", "value": 74.7, "unit": "u/L"}, {"measurement": "Plasma ALT", "setting": "HOZ mice [4]; male, 8 mg/kg, 8 hours", "value": 50.1, "unit": "u/L"}, {"measurement": "Plasma ALT", "setting": "HOZ mice [4]; male, 8 mg/kg, 24 hours", "value": 306.3, "unit": "u/L"}, {"measurement": "increase in ALT", "setting": "HOZ mice [4]; [7]", "value": 7.9, "unit": "fold"}, {"measurement": "increase in ALT and AST", "setting": "HOZ mice [4]; male, all other doses and time points", "value": "≤ 2", "unit": "fold"}]}
